Numbered stars: 1 amine (or outer) side, 2 acyl side, 3 side chain; on linkers, the order of the positions; unused ones are H or OH. Bridge positions count the residues as written; N and C are the ends. Square brackets hold non-standard residues; d marks the D form. Peptide text beside a SMILES is read from it. * marks the point of attachment. Trp(βS-Me,7-OMe) = COc1cccc2c([C@H](C)[C@H](N)C(=O)O)c[nH]c12; X44 = NC(=O)c1ccc([C@@H](O)[C@H](N[*:1])C(=O)[*:2])cc1; Phe(4-SO2NH2) = N[C@@H](Cc1ccc(S(N)(=O)=O)cc1)C(=O)O; dPro(trans-4-NMe2) = CN(C)[C@@H]1CN[C@@H](C(=O)O)C1; Ala(indazol-1-yl) = N[C@@H](Cn1ncc2ccccc21)C(=O)O; Trp(7-CN) = N#Cc1cccc2c(C[C@H](N)C(=O)O)c[nH]c12; Trp(7-Cl) = N[C@@H](Cc1c[nH]c2c(Cl)cccc12)C(=O)O; X8 = O=C([C@@H]1C[C@@H](O)[C@H](N[*:1])C1)[*:2]; Phe(4-CONH2) = NC(=O)c1ccc(C[C@H](N)C(=O)O)cc1; Phe(4-COOH) = N[C@@H](Cc1ccc(C(=O)O)cc1)C(=O)O; Trp(7-aza) = N[C@@H](Cc1c[nH]c2ncccc12)C(=O)O; Phe(4-CH2NH2) = NCc1ccc(C[C@H](N)C(=O)O)cc1; Pip(5R-OH) = O=C(O)[C@@H]1CC[C@@H](O)CN1; X1 = O=C([C@@H]1CC[C@H](N[*:1])C1)[*:2]; X38 = CC(C)(CO)CN(CC(=O)[*:2])[*:1]; Pip(4-aza) = O=C(O)[C@@H]1CNCCN1; 4Pal = N[C@@H](Cc1ccncc1)C(=O)O; NMeE = CN[C@@H](CCC(=O)O)C(=O)O; dHyp = O=C(O)[C@H]1C[C@H](O)CN1; Pip = O=C(O)[C@@H]1CCCCN1; αMeS = C[C@](N)(CO)C(=O)O; Carboxymethyl = O=C(O)C*; Nle = CCCC[C@H](N)C(=O)O; Nme = COCCNCC(=O)O; Sar = CNCC(=O)O
Experiments:
human TNFR2 ECD protein = target: T1, human TNFR2 ECD protein (Homo sapiens, UniProt P20333); experiment: SPR off-target binding (selectivity) to human TNFR2 ECD
T1 construct: HRV 3C protease cleavage site (C); 6His (C, cleaved yes); made in house; host or cells: Sf21 insect cells (baculovirus), secreted
T1 sequence (P20333 23-257): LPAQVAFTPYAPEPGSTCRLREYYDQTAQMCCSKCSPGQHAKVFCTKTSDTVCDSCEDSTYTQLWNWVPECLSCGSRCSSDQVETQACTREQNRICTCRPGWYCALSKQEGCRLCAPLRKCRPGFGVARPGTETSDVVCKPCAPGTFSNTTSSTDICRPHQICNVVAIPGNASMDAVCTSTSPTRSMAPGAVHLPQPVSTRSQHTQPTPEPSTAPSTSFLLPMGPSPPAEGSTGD
Protocol: B. Procedure for Binding Affinity and Selectivity measured by SPR
Affinity and selectivity for hTNFR1 and TNFR2 was determined using SPR. Human TNFR1 or TNFR2 genes (extracellular domain only) were synthesized with a C-terminal Avi-tag, HRV 3C protease cleavage site followed by a 6His-tag for affinity purification. The final gene product was cloned into pBAC™-1 vector (Millipore Sigma) for expression testing in insect cells. Constructs were transfected into Sf21 cells for baculovirus generation followed by protein expression analysis in Sf21 and Tni cell lines. Large scale expression in Sf21 cells was performed using baculovirus infected insect cells (BIICs) infected at a MOI=2.0 grown for 72 h. Target proteins secreted into the media were harvested via centrifugation and concentrated using diafiltration. TNFR was purified by immobilized metal ion affinity chromatography (IMAC) using a Ni-Sepharose HisTrap™ column (Cytiva™). Isolated TNFR had His tag removed using HRV 3C protease followed by additional purification using Ni-NTA chromatography. Biotinylation was performed on Ni-NTA flow-through fractions concentrated to 45 μM and treated with BirA ligase (1:100, μg/μg ratio) in 50 mM Tris pH 7.5, 150 mM NaCl, 50 μM biotin, 10 mM magnesium acetate, 10 mM ATP at 4° C. for 20 h. Final purification of biotin-TNFR and buffer exchange into 20 mM HEPES pH 7.5, 150 mM NaCl was performed using a HiLoad® Superdex® 200 26/60 column (Cytiva™). Highly purified protein was aliquoted and stored at −80° C.
The SPR assay uses a Cytiva™ 8K or 8K+ biosensor instrument to measure the kinetics of peptide analytes binding to captured human TNFR1 extracellular domain (ECD) protein; peptide analytes are also evaluated for any off-target binding to human TNFR2 ECD protein in parallel. Recombinant human TNFR1 ECD and human TNFR2 ECD proteins, biotinylated via engineered C-terminal avi-tags, are immobilized to a regenerable streptavidin biosensor chip surface (Cytiva™ Biotin CAPture kit, Series S; cat. #28920234). Peptide analytes binding to immobilized human TNFR1 ECD protein and their subsequent dissociation are conducted in a buffer of 10 mM HEPES pH 7.4, 150 mM NaCl, 3 mM EDTA, 0.05% P20,2% DMSO under laminar flow conditions and measured in response units (RU), which are directly proportional to the accumulated mass on the surface of the biosensor chip; the biosensor chip surface is regenerated via Cytiva™ proprietary methods between the evaluation of each peptide analyte. […] The SPR assay determines the association and dissociation rate constants, kon and koff, for each peptide analyte and, from these values, calculates the binding affinity, […] reported in Table 2.

[1] = target: T2, TNFα-induced NF-κB signal transduction pathway (TNFR1 signaling) in THP-1 cells (Homo sapiens, UniProt P19438); experiment: THP-1 Lucia NF-κB reporter cell assay, inhibition of TNFα-induced NF-κB signaling; assay type: cell-based; settings: THP-1 NF-κB Lucia reporter cells, 10 ng/mL TNFα, 16-18 h, secreted luciferase; read-out: THP-1 IC50
T2 sequence (P19438 30-455): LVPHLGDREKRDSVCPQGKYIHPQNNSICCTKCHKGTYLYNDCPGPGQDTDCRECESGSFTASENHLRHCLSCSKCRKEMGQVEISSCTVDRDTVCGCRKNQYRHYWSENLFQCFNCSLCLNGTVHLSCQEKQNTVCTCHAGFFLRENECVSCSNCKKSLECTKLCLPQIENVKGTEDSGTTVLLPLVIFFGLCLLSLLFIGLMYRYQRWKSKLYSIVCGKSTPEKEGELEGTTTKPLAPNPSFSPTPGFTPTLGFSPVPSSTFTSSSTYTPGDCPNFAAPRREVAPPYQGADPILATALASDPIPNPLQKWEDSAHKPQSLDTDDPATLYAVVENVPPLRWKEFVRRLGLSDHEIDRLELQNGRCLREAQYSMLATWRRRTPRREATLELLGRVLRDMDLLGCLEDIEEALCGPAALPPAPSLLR
How it was run: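 Read-out: secreted Lucia luciferase luminescence (QUANTI-Luc) from supernatant after 16-18 h, 37 °C, 10 ng/mL rhTNFα. Peptide pretreatment 1 h at 37 °C; 20,000 cells/well, selection antibiotics omitted. IC50 via 4-parameter logistic model against min/max controls.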

[2] = target: T3, human soluble TNFR1 (sTNFR1) (Homo sapiens, UniProt P19438); experiment: Human sTNFR1-peptide displacement assay (LanthaScreen Eu TR-FRET binding assay)
T3 construct: made in house; host or cells: Sf21 (baculovirus)
T3 sequence (P19438 with tags, fused parts or gaps): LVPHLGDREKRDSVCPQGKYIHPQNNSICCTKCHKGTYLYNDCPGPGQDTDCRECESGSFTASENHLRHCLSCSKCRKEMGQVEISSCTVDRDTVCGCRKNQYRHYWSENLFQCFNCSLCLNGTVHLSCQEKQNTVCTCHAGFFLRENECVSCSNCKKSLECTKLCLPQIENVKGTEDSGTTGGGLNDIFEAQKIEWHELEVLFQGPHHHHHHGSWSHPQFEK
How it was run: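 Readout is the 665/615 nm TR-FRET ratio (Eu anti-His donor, streptavidin-Alexa647 acceptor), normalized to DMSO and saturating displacer, fit by Morrison-based five-parameter logistic for Kd^app. His-tagged sTNFR1 (1-211) prebound to 100 nM biotinylated peptide SEQ ID NO.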

| Structure (SMILES) | Kd (human TNFR2 ECD protein) [nM] | IC50 [1] [nM] | Kd [2] [nM] |
| --- | --- | --- | --- |
| CCCC[C@@H]1NC(=O)[C@@H]2C[C@@H](O)[C@@H](C2)NC(=O)[C@H]([C@@H](C)c2c[nH]c3c(OC)cccc23)NC(=O)CN(C)C(=O)[C@H](Cc2ccc(O)cc2)NC(=O)[C@H](Cc2ccc(C(=O)O)cc2)NC(=O)[C@](C)(CO)NC(=O)[C@H](Cc2c[nH]c3c(Cl)cccc23)NC(=O)[C@H](Cc2ccncc2)NC(=O)[C@H](CC(N)=O)NC(=O)[C@H](CCC(=O)O)N(C)C(=O)[C@H](Cc2c[nH]c3ccccc23)NC(=O)[C@@H]2CNCCN2C(=O)[C@H](Cc2ccncc2)NC1=O [SEQ ID NO. 34] (cyclo([4Pal][Trp(7-Cl)][αMeS][Phe(4-COOH)]Y[Sar][Trp(βS-Me,7-OMe)][X8][Nle][4Pal][Pip(4-aza)]W[NMeE]N)) | > 1000 | 0.7 |  |
| CCCC[C@@H]1NC(=O)CSC[C@@H](C(N)=O)NC(=O)[C@H]([C@@H](C)c2c[nH]c3c(OC)cccc23)NC(=O)CN(C)C(=O)[C@H](Cc2ccc(O)cc2)NC(=O)[C@H](Cc2ccc(C(=O)O)cc2)NC(=O)[C@](C)(CO)NC(=O)[C@H](Cc2c[nH]c3c(Cl)cccc23)NC(=O)[C@H](Cc2ccncc2)NC(=O)[C@H](CC(N)=O)NC(=O)CN(CC(C)(C)CO)C(=O)[C@H](Cc2c[nH]c3ncccc23)NC(=O)[C@@H]2CCCCN2C(=O)[C@H](Cc2ccncc2)NC1=O [SEQ ID NO. 61] ({CH2CO}-[Nle][4Pal][Pip][Trp(7-aza)][X38]N[4Pal][Trp(7-Cl)][αMeS][Phe(4-COOH)]Y[Sar][Trp(βS-Me,7-OMe)]C-NH2; thioether N-14) | > 1000 | 3.6 |  |
| CCCC[C@@H]1NC(=O)CSC[C@@H](C(N)=O)NC(=O)[C@H]([C@@H](C)c2c[nH]c3c(OC)cccc23)NC(=O)CN(C)C(=O)[C@H](Cc2ccc(O)cc2)NC(=O)[C@H](Cc2ccc(C(=O)O)cc2)NC(=O)[C@](C)(CO)NC(=O)[C@H](Cc2c[nH]c3c(Cl)cccc23)NC(=O)[C@H](Cc2ccncc2)NC(=O)[C@H](CC(N)=O)NC(=O)CN(CCOC)C(=O)[C@H](Cc2c[nH]c3ncccc23)NC(=O)[C@@H]2CCCCN2C(=O)[C@H](Cc2ccncc2)NC1=O [SEQ ID NO. 62] ({CH2CO}-[Nle][4Pal][Pip][Trp(7-aza)][Nme]N[4Pal][Trp(7-Cl)][αMeS][Phe(4-COOH)]Y[Sar][Trp(βS-Me,7-OMe)]C-NH2; thioether N-14) | > 1000 | 4.4 |  |
| CCCC[C@@H]1NC(=O)CSC[C@@H](C(N)=O)NC(=O)[C@H]([C@@H](C)c2c[nH]c3c(OC)cccc23)NC(=O)CN(C)C(=O)[C@H](Cc2ccc(O)cc2)NC(=O)[C@H](Cc2ccc(C(=O)O)cc2)NC(=O)[C@](C)(CO)NC(=O)[C@H](Cc2c[nH]c3c(Cl)cccc23)NC(=O)[C@H](Cc2ccc(CN)cc2)NC(=O)[C@H](CC(N)=O)NC(=O)[C@H](CCC(=O)O)N(C)C(=O)[C@H](Cc2c[nH]c3ccccc23)NC(=O)[C@@H]2CC[C@@H](O)CN2C(=O)[C@H](Cc2ccncc2)NC1=O [SEQ ID NO. 96] ({CH2CO}-[Nle][4Pal][Pip(5R-OH)]W[NMeE]N[Phe(4-CH2NH2)][Trp(7-Cl)][αMeS][Phe(4-COOH)]Y[Sar][Trp(βS-Me,7-OMe)]C-NH2; thioether N-14) | > 1000 | 1.6 |  |
| CCCC[C@@H]1NC(=O)[C@@H]2CC[C@@H](C2)NC(=O)[C@H]([C@@H](C)c2c[nH]c3c(OC)cccc23)NC(=O)CN(C)C(=O)[C@H](Cc2ccc(OCC(=O)O)cc2)NC(=O)[C@H](Cc2ccc(C(N)=O)cc2)NC(=O)[C@](C)(CO)NC(=O)[C@H](Cc2c[nH]c3c(C#N)cccc23)NC(=O)[C@H](Cc2ccc(OCC(=O)O)cc2)NC(=O)[C@H](CC(N)=O)NC(=O)[C@H]2C[C@H](O)CN2C(=O)[C@H](Cc2c[nH]c3ccccc23)NC(=O)[C@@H]2CC[C@@H](O)CN2C(=O)[C@H](Cc2ccncc2)NC1=O [SEQ ID NO. 285] (cyclo([4Pal][Pip(5R-OH)]W[dHyp]NY(Carboxymethyl)[Trp(7-CN)][αMeS][Phe(4-CONH2)]Y(Carboxymethyl)[Sar][Trp(βS-Me,7-OMe)][X1][Nle])) |  | 0.6 | 0.04 |
| CCCC[C@@H]1NC(=O)[C@@H]2CC[C@@H](C2)NC(=O)[C@H]([C@@H](C)c2c[nH]c3c(OC)cccc23)NC(=O)CN(C)C(=O)[C@H](Cc2ccc(OCC(=O)O)cc2)NC(=O)[C@H](Cc2ccc(S(N)(=O)=O)cc2)NC(=O)[C@](C)(CO)NC(=O)[C@H](Cc2c[nH]c3c(C#N)cccc23)NC(=O)[C@H](Cc2ccc(OCC(=O)O)cc2)NC(=O)[C@H](CC(N)=O)NC(=O)[C@H]2C[C@H](O)CN2C(=O)[C@H](Cn2ncc3ccccc32)NC(=O)[C@@H]2CC[C@@H](O)CN2C(=O)[C@H](Cc2ccncc2)NC1=O [SEQ ID NO. 286] (cyclo([4Pal][Pip(5R-OH)][Ala(indazol-1-yl)][dHyp]NY(Carboxymethyl)[Trp(7-CN)][αMeS][Phe(4-SO2NH2)]Y(Carboxymethyl)[Sar][Trp(βS-Me,7-OMe)][X1][Nle])) |  | 0.4 | 0.05 |
| CCCC[C@@H]1NC(=O)[C@@H]2CC[C@@H](C2)NC(=O)[C@H]([C@@H](C)c2c[nH]c3c(OC)cccc23)NC(=O)CN(C)C(=O)[C@H]([C@H](O)c2ccc(C(N)=O)cc2)NC(=O)[C@H](Cc2ccc(C(=O)O)cc2)NC(=O)[C@](C)(CO)NC(=O)[C@H](Cc2c[nH]c3c(C#N)cccc23)NC(=O)[C@H](Cc2ccc(C(=O)O)cc2)NC(=O)[C@H](CC(N)=O)NC(=O)[C@H]2C[C@H](N(C)C)CN2C(=O)[C@H](Cc2c[nH]c3ncccc23)NC(=O)[C@@H]2CNCCN2C(=O)[C@H](Cc2ccncc2)NC1=O [SEQ ID NO. 287] (cyclo([4Pal][Pip(4-aza)][Trp(7-aza)][dPro(trans-4-NMe2)]N[Phe(4-COOH)][Trp(7-CN)][αMeS][Phe(4-COOH)][X44][Sar][Trp(βS-Me,7-OMe)][X1][Nle])) |  | 1.7 | 0.22 |

From patent US20240287138A1, “CYCLIC PEPTIDES FOR INHIBITING TNF RECEPTOR 1 ACTIVITY” (Merck Sharp & Dohme LLC, priority 2023, published 2024)
